Assay results: publication PMC9220178, “Preclinical Characterization of Antioxidant Quinolyl Nitrone QN23 as a New Candidate for the Treatment of Ischemic Stroke” (Antioxidants, 2022)

Assays:
[1] = tested on: male Wistar rats, transient middle cerebral artery occlusion (tMCAO); test: Neurofunctional score in transient focal cerebral ischemia (tMCAO); format: in vivo; settings: for Neurofunctional impairment compared with vehicle: 24 h and 48 h
Method: For the transient focal cerebral ischemia experimental model we used 12-week-old male Wistar rats (300–350 g, Charles River), housed under standard conditions with food and water ad libitum. The animals were anesthetized by an intraperitoneal injection of a mixture of 100 mg/kg ketamine, 5 mg/kg diazepam, and 0.3 mg/kg atropine. Anesthesia was maintained during the surgical procedure by inhalation of 1–1.5% sevoflurane in 80% medicinal air plus 20% O2. For the transient occlusion of the right middle cerebral artery (tMCAO, 60 min), we followed the intraluminal suture procedure as originally described, adapted to our experimental setup. The procedure included continuous monitoring of cortical perfusion (CP, by Laser-Doppler flowmetry), arterial blood pressure, and core temperature, and discontinuous measurement of glycemia levels during preischemia (basal), ischemia, and reperfusion stages. Buprenorphine (subcutaneous, 0.05 mg/kg) was used as an analgesic. Forty-eight hours after the ischemic insult, the animals were euthanized by intracardiac injection of potassium chloride (200 mg/kg) under deep anesthesia, and the brains were obtained.
A power analysis (see above) provided a sample size of 6 subjects per group. A total of 35 animals was used in this study. The animals were randomly assigned to four experimental tMCAO groups, treated with (1) vehicle; (2) QN23, 1.5 mg/kg; (3) QN23, 2.5 mg/kg; and (4) QN23, 4 mg/kg. QN23 was dissolved in vehicle and injected through the femoral vein 20 min after the end of tMCAO. Nine animals were excluded from the study, based on predefined criteria, because of death within the first 24 h after the procedure (1 vehicle, 1 QN23-treated at 2.5 mg/kg, and 4 QN23-treated at 4.0 mg/kg) or due to no infarct after the procedure (1 vehicle, 1 QN23-treated at 1.5 mg/kg, and 1 QN23-treated at 2.5 mg/kg). Experiments were conducted in compliance with the legislation on the protection of animals used for scientific purposes in Spain (RD 53/2013) and the EU (Directive 2010/63/EU). […]
Twenty-four and 48 hours after the ischemic insult, the rats’ neurofunctional status was evaluated following the procedure previously reported. The severity of functional deficits was determined with the sum of the score of four tests assessing (a) spontaneous activity (moving/exploring = 0, no moving or moving only when pushed = 1), (b) circling to the left (none = 0, circling when elevated by the tail and pushed = 1, circling without displacement, spinning = 2), (c) parachute reflex: protective abduction of forelimbs (symmetrical = 0, asymmetrical, contralateral forelimb retracted = 1), and (d) resistance to left forepaw stretching (not allowed = 0, allowed = 1). […]

[2] = tested on: adult male Wistar rats, four-vessel occlusion (4VO) transient forebrain ischemia; test: Neurological deficit score (NDS) after global cerebral ischemia (4VO); format: in vivo, rat; settings: R5d
Method: Transient forebrain ischemia was induced in adult male Wistar rats (10–12 weeks, Charles River, L’Arbresle, France) by the standard four-vessel occlusion (4VO) model previously described. Briefly, animals were anesthetized by intraperitoneal injection of a combination of ketamine, diazepam, and atropine (62.5, 5.0, and 0.25 mg/kg, respectively); positioned in a stereotactic device; and both vertebral arteries were cauterized. The next day, anesthesia was induced with 4% isoflurane and maintained at 2–2.5% isoflurane for carotid artery dissection. After anesthesia withdrawal, the carotid arteries were occluded with an atraumatic vascular clamp to induce brain ischemia. During the entire surgical procedure, temperature was monitored at 2 min intervals and kept at 37 °C. After 15 min of ischemia, the carotid arteries were unclamped for brain reperfusion. The animals were studied after 5 days of reperfusion (R5d), or after 11 weeks of reperfusion (long-term studies), and then they were euthanized under deep anesthesia. Animals from the sham control group were handled in the same way, but without occlusion of the carotid arteries. Ischemic animals were treated with vehicle solution (ethanol/polyethylene glycol 400/saline, 1:300:200 v/v), or with nitrones QN23 or NXY-059 in vehicle solution, as a single injection through the tail vein at the onset of reperfusion. For the therapeutic window experiments, the animals were also treated at reperfusion times 1, 3, and 6 h after ischemia. The treatments were prepared by an independent researcher and administered with concealed allocation. Treatments were administered in a randomized order obtained by a computer-based randomization program. […]
After 5 days of post-ischemic reperfusion (R5d), neurological deficits were evaluated in the animals by a researcher blind to the treatment allocation. General status and mobility impairments were quantified according to a scale previously validated in an entire cohort of R5d animals (n = 20). […]

COc1ccc2nc(Cl)c(/C=[N+](\[O-])C(C)(C)C)cc2c1 [QN23, (Z)-N-tert-Butyl-1-(2-chloro-6-methoxyquinolin-3-yl)methanimine Oxide]
Neurofunctional impairment compared with vehicle ([1]; 1.5 mg/kg and 2.5 mg/kg i.v. 20 min after end of tMCAO): significantly reduced
Animals that died within 24 h ([1]; 2.5 mg/kg i.v., tMCAO): one
Neurofunctional impairment compared with vehicle ([1]; 4 mg/kg i.v. 20 min after end of tMCAO): not at 4 mg/kg
Animals that died before 24 h ([1]; 4 mg/kg i.v., tMCAO): four
General status (neurological deficit score, NDS) compared with vehicle ([2]; 2.0 mg/kg i.v. at reperfusion onset): significant improvement
Therapeutic window: administration time after reperfusion onset with significantly reduced NDS ([2]; 2.0 mg/kg i.v., times tested 0, 1, 3, 6 h): up to 3 h
